Counter-ions that a name gives are not always drawn.
What was measured:
[1] = system: STYK1 Y191 phosphorylation by BLK kinase; assay: STYK1 tyrosine phosphorylation by BLK (IP-Western / in vitro kinase assay); assay type: biochemical; conditions: HEK293T cells, BLK overexpression; GST-STYK1 ICD and HA-BLK kinase reactions
Method: (§1) Whole-cell extracts were prepared with 1% sodium dodecyl sulfate lysis buffer with freshly added 1% proteinase inhibitor cocktail (Biomake, B14001) and 1 mM phenylmethylsulfonyl fluoride (PMSF, MCE, HY-B0496). Western blot was performed as described previously.[20] The following primary antibodies were used: anti-phospho-β-catenin (Ser33/37/Thr41) (9561, Cell Signaling Technology), anti-β-catenin (51067-2-AP, Proteintech), anti-β-TrCP (4394, Cell Signaling Technology), anti-Non-phospho (Active) β-catenin (Ser33/37/Thr41) (8814, Cell Signaling Technology), anti-STYK1 (862318, zenbio), anti-C-myc (10828-1-AP, Proteintech), anti-CyclinD1 (60186-1-Ig, Proteintech), anti-Axin2 (20540-1-AP, Proteintech), anti-mouse HA (M180-3, EMD Millipore), anti-Rabbit HA (51064-2-AP, Proteintech), anti-mouse […] (M185, MBL), anti-Rabbit […] […]
GST affinity-isolation assay was performed as described previously.[18] […] Surface plasmon resonance analysis (Biacore T200) quantified binding kinetics between GST-β-catenin/GSK3β and synthetic α-helical peptides, with dissociation constants calculated via BIA evaluation software.

[2] = system: Wnt/β-catenin signaling in colorectal cancer; conditions: cited from earlier work
Description: Continuously activated Wnt/β-catenin signaling via genetic or epigenetic ways, serves as a potent oncogenic driver across malignancies, spurring intensive efforts to develop targeted inhibitors. Nonetheless, tissue homeostasis and regeneration could be impaired upon the blockade of Wnt signaling, which needs to be resolved and limits Wnt-based therapies. Recent breakthroughs have unmasked tumor-specific vulnerabilities, identifying cancer-cell-restricted regulators that fine-tune Wnt signaling outputs, offering promising avenues for selectively crippling oncogenic Wnt activity.[59] For example ...

[3] = system: β-catenin/TCF4 transcriptional activity; assay: 7TGC reporter assay; assay type: cell-based, human; conditions: PANC-1 cells, EGF (100 ng/mL) or CQ (100 μM)
Description: The PCR products of STYK1, GSK3β, and Axin1 were cloned into pcDNA3.1-3×HA, pCMV-3×Flag (Sigma, E4401), and pCMV-mCherry (constructed by our lab) respectively. […] To make STYK1, β-catenin, GSK3β, or BLK mutants or truncations, a series of forwarding primers harboring the desired mutations were used in PCRs. The nucleotide sequences of all constructs were confirmed by DNA sequencing. […] DNA and interference RNA were transfected with Lipofectamine 3000 (Invitrogen, L3000015) according to the manufacturer’s instructions. shRNA for STYK1 #1: 5ʹ- [sequence] -3ʹ. #2: 5ʹ- [sequence] -3ʹ. siRNA for STYK1 was 5ʹ- [sequence] -3ʹ. siRNA for β-catenin was 5ʹ- [sequence] -3ʹ. siRNA for HRS was 5ʹ- [sequence] -3ʹ, siRNA for VPS24 was 5ʹ- [sequence] -3ʹ.

[4] = system: CyclinD1/Axin2/C-myc; assay: Wnt target gene expression (western blot, qRT-PCR); assay type: cell-based, human; conditions: PANC-1 cells, EGF (100 ng/mL) or CQ (100 μM)
Method: Whole-cell extracts were prepared with 1% sodium dodecyl sulfate lysis buffer with freshly added 1% proteinase inhibitor cocktail (Biomake, B14001) and 1 mM phenylmethylsulfonyl fluoride (PMSF, MCE, HY-B0496). Western blot was performed as described previously.[20]
Total RNA was extracted from cultured pancreatic cancer cells using Trizol reagent (Invitrogen) according to the manufacturer’s protocol. qRT-PCR was performed as previously described.^3 The mRNA expression level for each sample was normalized to the expression of GAPDH using the 2 ^-ΔΔct method^4 with three biological replicates of comparative qRT-PCR. The following primer sequences were used for qRT-PCR: GAPDH, (forward) 5′- […] -3′ and (reverse) 5′- […] -3′; CyclinD1, (forward) 5′- […] -3′ and (reverse) 5′- […] -3′; C-myc, (forward) 5′- […] -3′ and (reverse) 5′- […] -3′; Axin2, (forward) 5′- […] -3′ and (reverse) 5′- […] -3′; STYK1, (forward) 5′- […] -3′ and (reverse) 5′- […] -3′. Amplification was performed in an ABI Q3 real-time PCR system using a SYBR Green master mix (YEASEN, 11201ES08).

[5] = system: PANC-1 xenograft; assay: PANC-1 xenograft in nude mice; assay type: in vivo, mouse
Method: PANC-1 xenograft tumors were further established in nude mice via subcutaneous hindlimb injection (Fig. 8e). 25 mg/kg STYK1-driving peptides were intraperitoneally injected twice a week after the subcutaneous tumor formed.
(2) Mouse subcutaneous xenograft experiments were carried out as previously described.[25] Female BALB/c nude mice (4-week-old, 18–22 g) were sourced from Hunan SJA Laboratory Animal (Cat: hnslkjd006; Changsha, China) and housed under SPF conditions with routine health surveillance.

[6] = system: Wnt/β-catenin signaling; assay: STYK1-mediated Wnt/β-catenin signaling, PANC-1 cells; assay type: cell-based, human
Method: as §1

[7] = system: p62 and LC3; assay: Autophagic flux markers p62 and LC3, PANC-1 cells (western blot); assay type: cell-based, human
Method: as §1

CN1CCN(CCOc2cc(OC3CCOCC3)c3c(Nc4c(Cl)ccc5c4OCO5)ncnc3c2)CC1 [saracatinib]
BLK-mediated phosphorylation of STYK1 Y191 [1]: saracatinib inhibition

bafilomycin
inhibition of Wnt/β-catenin signaling [2]: marked inhibition of Wnt/β-catenin signaling in colorectal cancer

C/C=C/[C@H]1O[C@@](O)([C@@H](C)[C@H](O)[C@H](C)[C@H]2OC(=O)/C(OC)=C/C(C)=C/[C@@H](C)[C@@H](O)[C@@H](CC)[C@@H](O)[C@H](C)C/C(C)=C/C=C/[C@@H]2OC)C[C@@H](O)[C@@H]1C [concanamycin]
inhibition of Wnt/β-catenin signaling [2]: marked inhibition of Wnt/β-catenin signaling in colorectal cancer

CCN(CC)CCCC(C)Nc1ccnc2cc(Cl)ccc12 (stereo not shown) [CQ, chloroquine diphosphate salt]
Wnt signaling in the 7TGC system [3]: decreased Wnt signaling in the 7TGC system
STYK1-mediated alteration of the Wnt/β-catenin target genes C-myc, Axin2 [4]: down-regulated STYK1-mediated alteration of the Wnt/β-catenin target genes C-myc, Axin2

Oc1nc(-c2ccc(C(F)(F)F)cc2)nc2c1CSCC2 [XAV939]
tumor growth (methods statement) ([5]; BALB/c nude mice, PANC-1 xenografts, biweekly intraperitoneal, synthetic peptides (25 mg/kg)): reduced tumor growth
STYK1-mediated xenograft tumor growth ([5]; PANC-1 xenografts with STYK1 WT or mutants, nude mice, n = 3): suppressed STYK1-mediated xenograft tumor growth, including mutant variants

O=C(N/N=C/c1ccc(O)c(O)c1)c1cc2ccccc2cc1O [dynasore]
STYK1-mediated activation of Wnt/β-catenin signaling [6]: significantly blocked STYK1-mediated activation of Wnt/β-catenin signaling
level of LC3 [7]: decreased
level of p62 [7]: increased
